Measured values reported in paper PMC9017349, “Spiropyrimidinetriones: a Class of DNA Gyrase Inhibitors with Activity against Mycobacterium tuberculosis and without Cross-Resistance to Fluoroquinolones” (Antimicrobial Agents and Chemotherapy, 2022).
≈ marks a conversion by molar mass, not a printed value. Where “and” joins values, the source holds several entries; their conditions need not be identical. Identical values can stand only once. Like-named read-outs stand apart in the source and are kept apart here.

Legend:
[1] = test system: M. tuberculosis H37Rv; experiment: MIC against M. tuberculosis H37Rv in 7H9 medium with various supplements; assay type: cell-based, Mycobacterium tuberculosis; conditions: for MIC: Mycobacterium tuberculosis, H37RV
[2] = test system: M. tuberculosis H37Rv; experiment: microbe, parasite or virus in culture; assay type: cell-based; conditions: Mycobacterium tuberculosis, 168 h
[3] = test system: replicating M. tuberculosis H37Rv; assay type: cell-based; conditions: 1× MIC
[4] = test system: M. tuberculosis H37Rv; experiment: microbe, parasite or virus in culture; assay type: cell-based; conditions: Mycobacterium tuberculosis, read-out: MIC90, H37Rv
[5] = target: M. tuberculosis DNA gyrase (Mycobacterium tuberculosis, UniProt P9WG45+P9WG47); experiment: biochemical; conditions: read-out: IC50, DNA gyrase supercoiling
[6] = test system: recA promoter reporter in M. tuberculosis H37Rv; assay type: cell-based, Mycobacterium tuberculosis
[7] = test system: H37Rv (RecA); assay type: cell-based, Mycobacterium tuberculosis
[8] = test system: iniB promoter reporter in M. tuberculosis H37Rv; assay type: cell-based, Mycobacterium tuberculosis
[9] = test system: M. tuberculosis expressing DsRed in murine RAW 264.7 cells; experiment: microbe, parasite or virus in culture; assay type: cell-based; conditions: for IC50: RAW 264.7, 72 h exposure, read-out: IC50, intracellular M. tuberculosis in murine macrophages
[10] = test system: murine RAW 264.7 cells; assay type: cell-based; conditions: highest concentration tested
[11] = physchem; conditions: pH 6.5
Source text: (§1) Aiming to identify a compound to progress to in vivo efficacy studies, compounds were profiled for physicochemical properties, PK, and safety.

[12] = in vitro; conditions: human, plasma
Source text: as §1

[13] = test system: M. tuberculosis Erdman; experiment: microbe, parasite or virus in culture; assay type: cell-based; conditions: Mycobacterium tuberculosis, read-out: MIC against the Erdman strain with 4% human serum albumin, 7H9 medium-ADC-glycerol plus 4% human serum albumin
[14] = test system: M. tuberculosis Erdman pFCA-LuxAB (Erdman Lux); conditions: BALB/c mice, 300 mg/kg p.o. daily, 12 days
[15] = for Average Conc. Found in plasma: infected BALB/c mice
[16] = test system: S. pneumoniae; conditions: cited from earlier work
[17] = test system: S. aureus; conditions: cited from earlier work
[18] = test system: N. gonorrhoeae; conditions: cited from earlier work
[19] = in vivo; conditions: male, mouse
[20] = in vivo; conditions: BALB/c, mouse, 300 mg/kg
[21] = in vitro; conditions: mouse, plasma
[22] = test system: mouse lymphoma assay (micronucleation aberrations); conditions: highest concentration tested; cited from earlier work

M. tuberculosis DNA gyrase, sequence (P9WG45 whole entry): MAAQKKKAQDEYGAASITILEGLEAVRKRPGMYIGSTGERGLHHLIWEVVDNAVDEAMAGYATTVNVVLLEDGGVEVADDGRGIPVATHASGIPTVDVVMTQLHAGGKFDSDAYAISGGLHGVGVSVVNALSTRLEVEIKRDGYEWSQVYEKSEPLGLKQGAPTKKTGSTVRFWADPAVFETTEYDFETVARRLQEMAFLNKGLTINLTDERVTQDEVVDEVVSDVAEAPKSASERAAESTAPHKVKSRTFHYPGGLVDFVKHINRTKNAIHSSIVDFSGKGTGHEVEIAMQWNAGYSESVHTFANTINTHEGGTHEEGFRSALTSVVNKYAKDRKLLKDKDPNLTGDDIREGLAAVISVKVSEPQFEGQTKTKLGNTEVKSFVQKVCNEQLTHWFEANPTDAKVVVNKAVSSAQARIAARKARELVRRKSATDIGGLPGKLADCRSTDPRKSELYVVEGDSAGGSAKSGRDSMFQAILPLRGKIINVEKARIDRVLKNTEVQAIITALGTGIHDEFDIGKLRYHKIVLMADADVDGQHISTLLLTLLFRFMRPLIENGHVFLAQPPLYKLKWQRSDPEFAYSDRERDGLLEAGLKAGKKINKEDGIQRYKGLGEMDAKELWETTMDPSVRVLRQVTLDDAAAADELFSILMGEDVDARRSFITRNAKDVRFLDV
M. tuberculosis DNA gyrase, sequence (P9WG47 whole entry): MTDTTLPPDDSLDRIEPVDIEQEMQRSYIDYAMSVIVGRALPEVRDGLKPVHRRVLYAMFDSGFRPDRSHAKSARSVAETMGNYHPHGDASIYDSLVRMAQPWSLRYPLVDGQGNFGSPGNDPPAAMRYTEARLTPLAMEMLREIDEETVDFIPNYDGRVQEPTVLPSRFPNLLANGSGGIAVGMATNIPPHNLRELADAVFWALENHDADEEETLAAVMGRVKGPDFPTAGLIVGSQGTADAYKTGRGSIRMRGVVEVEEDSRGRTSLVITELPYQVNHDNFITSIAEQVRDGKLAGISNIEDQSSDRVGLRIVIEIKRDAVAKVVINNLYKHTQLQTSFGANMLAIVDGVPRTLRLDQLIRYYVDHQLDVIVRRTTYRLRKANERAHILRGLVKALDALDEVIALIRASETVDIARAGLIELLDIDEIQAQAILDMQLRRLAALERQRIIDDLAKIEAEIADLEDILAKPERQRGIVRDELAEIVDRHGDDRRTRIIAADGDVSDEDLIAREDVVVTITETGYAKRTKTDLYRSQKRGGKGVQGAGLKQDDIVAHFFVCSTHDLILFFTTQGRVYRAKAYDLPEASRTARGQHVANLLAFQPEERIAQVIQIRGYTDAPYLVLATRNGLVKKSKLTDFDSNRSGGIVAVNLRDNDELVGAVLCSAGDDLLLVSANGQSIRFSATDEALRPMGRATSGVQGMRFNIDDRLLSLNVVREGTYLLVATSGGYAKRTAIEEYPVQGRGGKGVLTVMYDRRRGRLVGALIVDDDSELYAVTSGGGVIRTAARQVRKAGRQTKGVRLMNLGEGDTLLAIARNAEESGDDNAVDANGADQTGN

Cc1nnc(-c2noc3c(F)c4c(cc23)CC2(C(=O)NC(=O)NC2=O)[C@H]2[C@H](C)O[C@H](C)CN42)o1 [Compound 22]
antibacterial activity in culture lower than moxifloxacin [1]: 8 fold
MIC ([1]; read-out: MIC, ADC/GLU/TW): 1.7 µM (≈ 0.8 µg/mL)
MIC ([1]; read-out: MIC, DPPC/CAS/TX): 5.2 µM (≈ 2.45 µg/mL)
MIC ([1]; read-out: MIC, DPPC/Chol/BSA/TX): 2.9 µM (≈ 1.36 µg/mL)
MIC ([1]; read-out: MIC, GLU/BSA/TX): 3 µM (≈ 1.41 µg/mL)
MIC ([1]; read-out: MIC, GLU/CAS/TX): 2.6 µM (≈ 1.22 µg/mL)
MIC ([2]; H37Rv, 7 days, Middlebrook 7H9 with OADC and glycerol, read-out: MIC (dose-response)): 7.26 µM (≈ 3.42 µg/mL)
MBC ([2]; H37RV, CARA, transfer to charcoal agar, additional 7 days): 15.6 µM (≈ 7.34 µg/mL)
time to 3-log kill [3]: 7 days
MIC90 [4]: 1 µM (≈ 0.47 µg/mL)
IC50 [5]: 2 µM
concentration of maximal effect in PrecA-LUX assay ([6]; at 7 days): 0.4 µM
bioluminescence response in PrecA-LUX assay ([6]; over 7 days): strong bioluminescence signal
PrecA-LUX MIC [7]: ~ 3.9 μM
bioluminescence response in PiniB-LUX assay [8]: none of the DNA gyrase inhibitors, including 22, elicited a strong bioluminescence response
macrophage IC50 higher than the average in vitro broth MIC [9]: less than 3 fold
IC50 ([9]; Mycobacterium tuberculosis, RAW264.7, 72 h): 6.3 µM
IC50 [9]: 6 µM
toxicity against the macrophage cell line [10]: > 100 µM
solubility thermodynamic [11]: 140 µM (≈ 65.9 µg/mL)
fraction unbound [12]: 0.15
MIC [13]: 16 µM
tolerability [14]: generally well tolerated
Found Concentration in plasma, single mice ([15]; infected BALB/c mice A, B, C, 300 mg/kg QD, 1 hr post dose, 300 mg/kg): 229000 ng/mL and 117000 ng/mL and 148000 ng/mL
Average Conc. Found in plasma ([15]; 300 mg/kg QD, 1 hr post dose): 165000 ng/mL
Average Conc. Found in plasma ([15]; 300 mg/kg QD, 24 hr post dose): 6100 ng/mL
free drug concentration over the MIC ([15]; predicted from PK in healthy mice, for over 8 h): about 2 fold
MIC against S. pneumoniae [16]: 0.25 µM (≈ 0.118 µg/mL)
MIC against S. aureus [17]: 0.5 µM (≈ 0.235 µg/mL)
MIC against N. gonorrhoeae [18]: 2.0 µM (≈ 0.941 µg/mL)
AUC(0-inf) ([19]; iv, 2 mg/kg): 2.37 µg·h/mL
Vd ([19]; iv, 2 mg/kg): 5.1 L/kg
clearance ([19]; iv, 2 mg/kg): 0.858 L/h/kg
half-life ([19]; iv, 2 mg/kg): 3.7 h
AUC(0-inf) ([19]; po, 20 mg/kg): 24.6 µg·h/mL
Cmax ([19]; po, 20 mg/kg): 9.5 µg/mL
Tmax ([19]; po, 20 mg/kg): 1 h
bioavailability ([19]; po, 20 mg/kg): 104%
AUC(0-inf) ([19]; po, 100 mg/kg): 343 µg·h/mL
Cmax ([19]; po, 100 mg/kg): 47 µg/mL
Tmax ([19]; po, 100 mg/kg): 2.8 h
AUC(0-inf) ([19]; po, 300 mg/kg): 1270 µg·h/mL
Cmax ([19]; po, 300 mg/kg): 133 µg/mL
Tmax ([19]; po, 300 mg/kg): 1 h
AUC(0-inf) ([19]; po, 500 mg/kg): 1440 µg·h/mL
Cmax ([19]; po, 500 mg/kg): 117 µg/mL
Tmax ([19]; po, 500 mg/kg): 0.83 h
Cmax [20]: 165 ± 58 µg/mL
fraction unbound [21]: 0.068
genotoxicity in the MLA [22]: no genotoxicity at the highest concentration tested
